Experimental data published in ChEMBL document CHEMBL5465560, “Selectivity Literature for EUbOPEN Chemogenomic Library” (2024).

Tests used:
[1] = biological target: T1, Homeodomain-interacting protein kinase 4 (Homo sapiens) (UniProt Q8NE63); test: Selectivity interaction (KinomeScan (DiscoverX)) EUB0000092b HIPK4; conditions: at 10 µM
T1 sequence (whole entry): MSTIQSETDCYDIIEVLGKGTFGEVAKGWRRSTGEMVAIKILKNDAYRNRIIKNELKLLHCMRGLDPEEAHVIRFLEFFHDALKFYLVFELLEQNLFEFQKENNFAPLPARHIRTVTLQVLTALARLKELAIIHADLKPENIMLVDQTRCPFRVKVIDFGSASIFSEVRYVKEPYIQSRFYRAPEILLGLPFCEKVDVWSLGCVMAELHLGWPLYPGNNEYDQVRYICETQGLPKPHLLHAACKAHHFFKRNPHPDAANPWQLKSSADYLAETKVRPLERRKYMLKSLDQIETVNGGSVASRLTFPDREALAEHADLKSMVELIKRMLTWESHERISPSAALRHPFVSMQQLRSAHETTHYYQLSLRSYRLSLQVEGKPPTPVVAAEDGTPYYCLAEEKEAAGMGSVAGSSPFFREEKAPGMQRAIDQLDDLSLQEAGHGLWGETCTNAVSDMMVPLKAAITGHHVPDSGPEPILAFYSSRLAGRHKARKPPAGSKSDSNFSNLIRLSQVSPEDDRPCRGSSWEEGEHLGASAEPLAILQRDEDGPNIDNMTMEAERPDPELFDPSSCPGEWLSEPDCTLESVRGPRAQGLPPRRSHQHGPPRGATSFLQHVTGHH

[2] = biological target: Serine/threonine-protein kinase 26 (Homo sapiens, UniProt Q9P289); test: Selectivity interaction (KinomeScan (DiscoverX)) EUB0001868a STK26; conditions: at 1 µM
[3] = biological target: Cyclin-dependent kinase 13 (Homo sapiens, UniProt Q14004); conditions: at 10 µM
[4] = biological target: Tyrosine-protein kinase HCK (Homo sapiens) (UniProt P08631); test: Selectivity interaction (Kinase panel (Z-LYTE Assay)) EUB0001632a HCK; conditions: at 10 µM
[5] = biological target: T2, Serine/threonine-protein kinase ULK1 (Homo sapiens) (UniProt O75385); test: Selectivity interaction (ActivX KiNativ screen (kinase selectivity in THP-1 cell lysates)) EUB0000639a ULK1; type: subcellular; conditions: lysate, at 5 µM
T2 sequence (whole entry): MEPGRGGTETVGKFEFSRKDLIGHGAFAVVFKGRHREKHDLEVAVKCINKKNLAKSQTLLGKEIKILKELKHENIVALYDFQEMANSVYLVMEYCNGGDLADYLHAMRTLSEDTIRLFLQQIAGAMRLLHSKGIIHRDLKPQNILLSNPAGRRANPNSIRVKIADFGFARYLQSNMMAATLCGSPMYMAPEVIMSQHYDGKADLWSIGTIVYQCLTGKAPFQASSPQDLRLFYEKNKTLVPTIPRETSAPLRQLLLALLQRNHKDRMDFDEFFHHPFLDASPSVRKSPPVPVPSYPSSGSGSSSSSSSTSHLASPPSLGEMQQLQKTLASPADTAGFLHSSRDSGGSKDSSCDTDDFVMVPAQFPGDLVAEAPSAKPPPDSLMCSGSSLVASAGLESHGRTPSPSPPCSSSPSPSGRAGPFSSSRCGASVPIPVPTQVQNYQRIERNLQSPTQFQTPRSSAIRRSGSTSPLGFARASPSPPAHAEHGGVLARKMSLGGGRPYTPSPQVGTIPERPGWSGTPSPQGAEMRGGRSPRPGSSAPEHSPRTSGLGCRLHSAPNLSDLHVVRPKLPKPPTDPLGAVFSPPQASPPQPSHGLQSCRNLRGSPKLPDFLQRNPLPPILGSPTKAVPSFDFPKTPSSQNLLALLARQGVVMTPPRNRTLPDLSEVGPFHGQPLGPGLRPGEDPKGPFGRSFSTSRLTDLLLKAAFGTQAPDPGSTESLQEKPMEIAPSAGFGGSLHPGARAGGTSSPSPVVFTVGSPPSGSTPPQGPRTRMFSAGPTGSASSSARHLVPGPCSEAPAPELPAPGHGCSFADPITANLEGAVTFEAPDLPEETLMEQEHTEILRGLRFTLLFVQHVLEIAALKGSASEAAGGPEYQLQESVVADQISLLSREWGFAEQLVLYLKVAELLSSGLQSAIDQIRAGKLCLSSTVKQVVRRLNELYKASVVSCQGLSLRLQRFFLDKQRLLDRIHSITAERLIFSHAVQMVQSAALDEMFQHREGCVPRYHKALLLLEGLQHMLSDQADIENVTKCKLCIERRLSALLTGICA

[6] = biological target: Receptor-type tyrosine-protein kinase FLT3 (Homo sapiens) (UniProt P36888); test: Selectivity interaction (Kinase panel (Invitrogen)) EUB0000639a FLT3; conditions: at 200 nM
[7] = biological target: Tyrosine-protein kinase Fes/Fps (Homo sapiens) (UniProt P07332); test: Selectivity interaction (KinomeScan (DiscoverX)) EUB0000045b FES
[8] = system: Phosphatidylinositol 4,5-bisphosphate 3-kinase catalytic subunit alpha isoform (Homo sapiens), P42336 [H1047L]; test: (§1) Selectivity interaction (KinomeScan (DiscoverX)) EUB0000045b PIK3CA
[9] = system: Phosphatidylinositol 4,5-bisphosphate 3-kinase catalytic subunit alpha isoform (Homo sapiens), P42336 [E545A]; test: as §1
[10] = biological target: Phosphatidylinositol 4,5-bisphosphate 3-kinase catalytic subunit alpha isoform (Homo sapiens) (UniProt P42336); test: as §1
[11] = system: Phosphatidylinositol 4,5-bisphosphate 3-kinase catalytic subunit alpha isoform (Homo sapiens), P42336 [E542K]; test: as §1
[12] = system: Phosphatidylinositol 4,5-bisphosphate 3-kinase catalytic subunit alpha isoform (Homo sapiens), P42336 [M1043I]; test: as §1
[13] = system: Phosphatidylinositol 4,5-bisphosphate 3-kinase catalytic subunit alpha isoform (Homo sapiens), P42336 [E545K]; test: as §1
[14] = system: Phosphatidylinositol 4,5-bisphosphate 3-kinase catalytic subunit alpha isoform (Homo sapiens), P42336 [I800L]; test: as §1
[15] = system: Phosphatidylinositol 4,5-bisphosphate 3-kinase catalytic subunit alpha isoform (Homo sapiens), P42336 [H1047Y]; test: as §1
[16] = system: Phosphatidylinositol 4,5-bisphosphate 3-kinase catalytic subunit alpha isoform (Homo sapiens), P42336 [C420R]; test: as §1
[17] = system: Phosphatidylinositol 4,5-bisphosphate 3-kinase catalytic subunit alpha isoform (Homo sapiens), P42336 [Q546K]; test: as §1
Phosphatidylinositol 4,5-bisphosphate 3-kinase catalytic subunit alpha isoform (Homo sapiens), P42336 [Q546K], sequence (P42336 whole entry Q546K, canonical isoform): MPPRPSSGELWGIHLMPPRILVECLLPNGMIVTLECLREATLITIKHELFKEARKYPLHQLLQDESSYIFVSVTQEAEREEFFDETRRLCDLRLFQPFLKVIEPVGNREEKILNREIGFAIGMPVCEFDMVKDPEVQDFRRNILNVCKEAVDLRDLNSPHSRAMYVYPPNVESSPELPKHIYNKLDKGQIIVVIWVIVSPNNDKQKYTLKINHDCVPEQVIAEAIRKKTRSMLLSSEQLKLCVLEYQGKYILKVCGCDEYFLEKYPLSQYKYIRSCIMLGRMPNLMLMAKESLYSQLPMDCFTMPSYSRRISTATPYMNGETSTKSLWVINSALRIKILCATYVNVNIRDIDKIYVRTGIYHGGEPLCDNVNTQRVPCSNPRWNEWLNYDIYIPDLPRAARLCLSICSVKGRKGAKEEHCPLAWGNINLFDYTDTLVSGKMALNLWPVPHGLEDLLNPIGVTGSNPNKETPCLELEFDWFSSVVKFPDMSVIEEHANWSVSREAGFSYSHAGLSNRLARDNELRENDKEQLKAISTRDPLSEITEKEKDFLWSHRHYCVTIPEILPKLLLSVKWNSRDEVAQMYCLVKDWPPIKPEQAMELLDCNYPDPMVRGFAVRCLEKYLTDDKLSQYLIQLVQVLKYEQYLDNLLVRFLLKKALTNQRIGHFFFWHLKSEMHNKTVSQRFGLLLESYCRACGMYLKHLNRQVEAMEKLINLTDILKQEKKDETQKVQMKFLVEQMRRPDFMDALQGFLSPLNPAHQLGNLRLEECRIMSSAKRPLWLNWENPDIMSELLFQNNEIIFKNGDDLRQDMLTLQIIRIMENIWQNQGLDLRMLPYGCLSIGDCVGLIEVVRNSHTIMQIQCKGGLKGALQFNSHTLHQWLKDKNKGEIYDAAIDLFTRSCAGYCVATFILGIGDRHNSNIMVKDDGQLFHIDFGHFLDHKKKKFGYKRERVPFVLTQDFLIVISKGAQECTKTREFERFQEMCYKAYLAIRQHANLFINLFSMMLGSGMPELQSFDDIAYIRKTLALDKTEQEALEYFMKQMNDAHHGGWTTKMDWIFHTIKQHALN

Phosphatidylinositol 4,5-bisphosphate 3-kinase catalytic subunit alpha isoform (Homo sapiens), P42336 [I800L], sequence (P42336 whole entry I800L, canonical isoform): as the sequence (P42336 whole entry Q546K, canonical isoform) above, with K546Q, I800L counted along it
Phosphatidylinositol 4,5-bisphosphate 3-kinase catalytic subunit alpha isoform (Homo sapiens), P42336 [H1047L], sequence (P42336 whole entry H1047L, canonical isoform): as the sequence (P42336 whole entry Q546K, canonical isoform) above, with K546Q, H1047L counted along it
Phosphatidylinositol 4,5-bisphosphate 3-kinase catalytic subunit alpha isoform (Homo sapiens), P42336 [E542K], sequence (P42336 whole entry E542K, canonical isoform): as the sequence (P42336 whole entry Q546K, canonical isoform) above, with E542K, K546Q counted along it
Tyrosine-protein kinase Fes/Fps (Homo sapiens), sequence (P07332 whole entry, canonical isoform): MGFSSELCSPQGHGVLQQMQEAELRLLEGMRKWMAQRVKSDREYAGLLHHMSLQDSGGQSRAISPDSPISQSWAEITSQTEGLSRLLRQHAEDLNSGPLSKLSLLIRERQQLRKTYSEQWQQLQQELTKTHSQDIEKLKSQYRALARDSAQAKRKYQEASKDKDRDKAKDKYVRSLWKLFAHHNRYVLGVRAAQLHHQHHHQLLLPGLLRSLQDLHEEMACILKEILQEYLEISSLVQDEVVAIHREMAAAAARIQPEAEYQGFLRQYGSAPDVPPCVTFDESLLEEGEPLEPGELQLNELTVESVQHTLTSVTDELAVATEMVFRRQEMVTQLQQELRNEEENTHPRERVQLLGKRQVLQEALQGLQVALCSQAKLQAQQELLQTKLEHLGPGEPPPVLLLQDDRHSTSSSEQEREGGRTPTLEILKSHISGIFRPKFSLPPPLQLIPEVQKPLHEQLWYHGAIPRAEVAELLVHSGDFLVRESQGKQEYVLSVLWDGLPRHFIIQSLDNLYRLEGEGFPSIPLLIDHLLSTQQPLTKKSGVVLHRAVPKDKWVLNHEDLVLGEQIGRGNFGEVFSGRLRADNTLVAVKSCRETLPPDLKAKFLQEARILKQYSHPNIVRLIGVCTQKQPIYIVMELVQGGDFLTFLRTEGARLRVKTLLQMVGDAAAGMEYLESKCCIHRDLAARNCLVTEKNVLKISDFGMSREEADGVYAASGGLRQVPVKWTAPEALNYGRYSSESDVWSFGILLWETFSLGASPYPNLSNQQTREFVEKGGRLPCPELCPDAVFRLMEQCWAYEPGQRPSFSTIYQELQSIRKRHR

Question: `CCC(=O)N1CCN(c2ccc(-n3c(=O)ccc4cnc5ccc(-c6cnc7ccccc7c6)cc5c43)cc2C(F)(F)F)CC1` was tested. Which % of control [1] did it give?
Answer: The % of control was 4.6%.

Question: Which % of control [2] does the source give for `Cc1cc(-c2ccnc(Nc3cnn(C)c3)n2)ccc1CNC(=O)N1CC(OC(C)C)C1` here?
Answer: The % of control was 42%.

Question: How did the % of control [3] turn out when `Cc1cc([C@@H](C)Nc2ccccc2C(=O)O)c2nc(N3CCOCC3)cc(=O)n2c1` [AZD-6482] was run?
Answer: Its % of control is 88%.

Question: Which % of control [4] does the source give for `Cn1cc(-n2cnc3c(NCc4nc5cc(Cl)c(Cl)cc5[nH]4)nc(N4CCOCC4)nc32)cn1` here?
Answer: The % of control was 5.35%.

Question: For `CC[C@@H]1[C@H](F)C(=O)N[C@@H]1COc1nccc2cc(C(N)=O)c(OC)cc12` [ZIMLOVISERTIB], which % of inhibition [5] is on record?
Answer: Its % of inhibition is -74.1%.

Question: And the % of inhibition [6]?
Answer: The % of inhibition was 29.4%.

Question: For `C=CC(=O)Nc1cc(-n2c(=O)ccc3cnc4ccc(-c5ccc(NS(C)(=O)=O)cc5)cc4c32)ccc1C`, which % of control ([7]; at 1 µM) is on record?
Answer: Its % of control is 92%.

Question: And the % of control ([7]; at 10 µM)?
Answer: Its % of control is 100%.

Question: And the % of control ([8]; at 1 µM)?
Answer: The % of control was 100%.

Question: And the % of control ([8]; at 10 µM)?
Answer: Its % of control is 86%.

Question: What about the % of control ([9]; at 1 µM) of the same compound?
Answer: The % of control was 90%.

Question: And the % of control ([9]; at 10 µM)?
Answer: The % of control was 17%.

Question: And the % of control ([10]; at 1 µM)?
Answer: The % of control was 68%.

Question: What about the % of control ([10]; at 10 µM) of the same compound?
Answer: The % of control was 9.9%.

Question: What about the % of control ([11]; at 1 µM) of the same compound?
Answer: Its % of control is 100%.

Question: What about the % of control ([11]; at 10 µM) of the same compound?
Answer: The % of control was 23%.

Question: What about the % of control ([12]; at 1 µM) of the same compound?
Answer: Its % of control is 100%.

Question: What about the % of control ([12]; at 10 µM) of the same compound?
Answer: The % of control was 24%.

Question: And the % of control ([13]; at 1 µM)?
Answer: The % of control was 100%.

Question: What about the % of control ([13]; at 10 µM) of the same compound?
Answer: The % of control was 74%.

Question: And the % of control ([14]; at 1 µM)?
Answer: Its % of control is 46%.

Question: And the % of control ([14]; at 10 µM)?
Answer: Its % of control is 7.6%.

Question: What about the % of control ([15]; at 1 µM) of the same compound?
Answer: Its % of control is 88%.

Question: And the % of control ([15]; at 10 µM)?
Answer: The % of control was 26%.

Question: And the % of control ([16]; at 1 µM)?
Answer: Its % of control is 100%.

Question: And the % of control ([16]; at 10 µM)?
Answer: The % of control was 32%.

Question: What about the % of control ([17]; at 1 µM) of the same compound?
Answer: Its % of control is 100%.

Question: What about the % of control ([17]; at 10 µM) of the same compound?
Answer: Its % of control is 35%.
